This is an account of results in patent CN113730373A, “一种递送姜黄素的zein-AOS复合纳米颗粒及其制备方法” (Zhejiang Ocean University ZJOU, priority 2021, dated 2021).

Data set [1] in a line: DSC of thermal behaviour of nanoparticles. The data set is classed as physicochemical.
Data set [2] in a line: Curcumin release in simulated gastric fluid (SGF). The data set is classed as physicochemical. The note with it: pH 2.0, pepsin, 37℃, 100 rpm, sampling to 90 min.

For the molecule `COc1cc(/C=C/C(=O)CC(=O)/C=C/c2ccc(O)c(OC)c2)ccc1O` [Cur, 姜黄素], the “characteristic decomposition peak of curcumin” value in data set [1] is 179.2 °C. Besides, in data set [2], the curcumin release rate is on record as 60.5%.
